The values below come from PMC11985910 (Nature Communications, 2025).

Data set [1] addresses native human MPO (Homo sapiens, UniProt P05164). In words: MPO-catalysed H2O2 consumption, Amplex Red assay. Format: biochemical.
The target in data set [2] is T1, MPO (Homo sapiens, UniProt P05164). Kind of data set: MPO-catalysed H2O2 consumption, H2O2-specific electrode. Format: biochemical.
In data set [3] the target is T1, MPO. Kind of data set: MPO chlorination assay. Format: biochemical.
In data set [4] the target is T1, MPO. Kind of data set: MPO LDL lipid peroxidation assay. Format: biochemical.
Data set [5] deals with T1, MPO. In words: MPO partition ratio assay. The data set is classed as biochemical. To be noted: mean ± SEM, n = 3; MPO 60 nM, 2 μM H2O2.
Data set [6] has as its target MAO-A, human (Homo sapiens, UniProt P21397). Kind of data set: MAO-A activity assay. Format: biochemical. To be noted: compared to MPO or VAP-1.
Data set [7] addresses LOX, human (Homo sapiens, UniProt P28300). In words: LOX activity assay. The data set is classed as biochemical. To be noted: compared to MPO or VAP-1.
The subject of data set [8] is HepG2 cells. The data set is classed as cell-based. The conditions noted are these: tested up to 100 μM in HepG2 cells.
Data set [9] has as its target recombinant human VAP-1 (Homo sapiens, UniProt Q16853). The data set is classed as biochemical. To be noted: 30 μM, 40 min, 37 °C.
Data set [10] concerns the target human DAO (Homo sapiens, UniProt P19801). The data set is classed as biochemical. To be noted: 30 μM, 40 min, 37 °C.
For data set [11], the system named is panel of 14 common transporters. The data set is classed as in vitro ADME, human. The conditions noted are these: 30 µM; 14 targets screened.
Data set [12] can be described thus: in vivo. Format: in vivo, C57Bl/6J mice. The conditions noted are these: mouse.
The target in data set [13] is MPO (Mus musculus, UniProt P11247). Kind of data set: Acute peritonitis. The data set is classed as in vivo. The conditions noted are these: for reduction of peritoneal MPO activity: oral 60 mg/kg; for effect on lavage fluid MPO protein concentration (ELISA): thioglycolate broth/zymosan A-treated mice.
Chain of MPO (Mus musculus, UniProt P11247) (P11247 139-718): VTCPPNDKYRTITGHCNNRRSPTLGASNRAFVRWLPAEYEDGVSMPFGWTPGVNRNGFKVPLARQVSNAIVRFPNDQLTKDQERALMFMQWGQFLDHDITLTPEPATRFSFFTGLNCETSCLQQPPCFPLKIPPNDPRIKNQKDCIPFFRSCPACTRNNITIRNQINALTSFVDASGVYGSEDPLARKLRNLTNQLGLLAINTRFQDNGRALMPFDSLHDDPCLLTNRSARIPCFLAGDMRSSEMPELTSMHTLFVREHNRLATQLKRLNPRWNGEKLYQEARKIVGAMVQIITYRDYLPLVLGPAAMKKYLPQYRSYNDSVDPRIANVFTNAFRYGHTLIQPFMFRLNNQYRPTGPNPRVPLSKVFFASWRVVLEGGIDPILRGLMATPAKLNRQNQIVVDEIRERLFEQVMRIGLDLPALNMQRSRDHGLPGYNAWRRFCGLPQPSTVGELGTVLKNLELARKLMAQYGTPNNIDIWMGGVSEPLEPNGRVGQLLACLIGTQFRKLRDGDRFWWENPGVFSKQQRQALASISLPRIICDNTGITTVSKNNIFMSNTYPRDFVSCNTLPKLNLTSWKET
In data set [14] the test system is thioglycolate broth-induced peritoneal leucocyte infiltration. Kind of data set: Peritonitis leucocyte trafficking model. The conditions noted are these: 6 h; oral SNT-8370 60, verdiperstat 60, PXS-4707 6 mg/kg. Format: in vivo, mouse.
Data set [15] deals with VAP-1 (Mus musculus, UniProt O70423). Kind of data set: VAP-1 activity in adipose tissue. The data set is classed as in vivo. To be noted: 6 h; oral SNT-8370 60 mg/kg, PXS-4707 6 mg/kg.
Chain of VAP-1 (O70423 whole entry): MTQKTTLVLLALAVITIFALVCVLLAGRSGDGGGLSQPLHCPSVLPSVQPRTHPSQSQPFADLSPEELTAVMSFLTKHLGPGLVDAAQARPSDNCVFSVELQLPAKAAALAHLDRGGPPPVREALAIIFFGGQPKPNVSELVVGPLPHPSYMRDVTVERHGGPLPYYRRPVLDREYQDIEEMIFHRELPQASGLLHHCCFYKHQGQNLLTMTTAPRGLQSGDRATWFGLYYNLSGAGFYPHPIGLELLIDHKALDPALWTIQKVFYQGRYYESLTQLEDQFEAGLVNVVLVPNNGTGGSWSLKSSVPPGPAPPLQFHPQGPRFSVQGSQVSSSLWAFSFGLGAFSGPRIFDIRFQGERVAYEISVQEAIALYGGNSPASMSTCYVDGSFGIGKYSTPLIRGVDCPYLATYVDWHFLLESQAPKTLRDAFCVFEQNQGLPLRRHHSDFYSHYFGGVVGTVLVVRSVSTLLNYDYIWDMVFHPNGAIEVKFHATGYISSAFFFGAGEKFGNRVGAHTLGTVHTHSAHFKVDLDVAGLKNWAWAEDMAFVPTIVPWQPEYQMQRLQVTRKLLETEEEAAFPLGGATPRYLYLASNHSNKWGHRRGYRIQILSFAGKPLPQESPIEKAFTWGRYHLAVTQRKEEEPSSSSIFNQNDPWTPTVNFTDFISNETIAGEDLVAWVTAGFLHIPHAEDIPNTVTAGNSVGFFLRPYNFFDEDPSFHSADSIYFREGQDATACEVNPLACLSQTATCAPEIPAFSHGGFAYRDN
Data set [16] relates to λ-carrageenan-induced leucocyte infiltration and oedema. In words: Carrageenan air pouch model. Format: in vivo, mouse. To be noted: for leucocyte influx into the air pouch at 4-h: oral SNT-8370 30, verdiperstat 15, PXS-4707 6, dexamethasone 10 mg/kg.
Data set [17] deals with LPS-induced lung leucocyte infiltration. Kind of data set: Acute lung injury. The conditions noted are these: 6 h post-LPS; oral SNT-8370 30, verdiperstat 30, PXS-4707 10 mg/kg. Format: in vivo, mouse.
The test system of data set [18] is myocardial ischaemia/reperfusion injury. Kind of data set: Myocardial infarction. Format: in vivo, rat. The conditions noted are these: 60 mg/kg oral twice daily, 4 weeks.
Data set [19] has as its system panel of 68 enzymes, receptors, ion channels and transporters. The conditions noted are these: 10 µM; 68 targets screened.
The conditions of data set [20]: for drug concentration in peritoneal lavage fluid: 5 h after gavage.
Where [21] appears, read: SNT-8370 30, verdiperstat 15, PXS-4707 6, dexamethasone 10 mg/kg.

The structures appear in SMILES notation. Like-named read-outs stand apart in the source and are kept apart here.

T1 sequence (P05164 279-745): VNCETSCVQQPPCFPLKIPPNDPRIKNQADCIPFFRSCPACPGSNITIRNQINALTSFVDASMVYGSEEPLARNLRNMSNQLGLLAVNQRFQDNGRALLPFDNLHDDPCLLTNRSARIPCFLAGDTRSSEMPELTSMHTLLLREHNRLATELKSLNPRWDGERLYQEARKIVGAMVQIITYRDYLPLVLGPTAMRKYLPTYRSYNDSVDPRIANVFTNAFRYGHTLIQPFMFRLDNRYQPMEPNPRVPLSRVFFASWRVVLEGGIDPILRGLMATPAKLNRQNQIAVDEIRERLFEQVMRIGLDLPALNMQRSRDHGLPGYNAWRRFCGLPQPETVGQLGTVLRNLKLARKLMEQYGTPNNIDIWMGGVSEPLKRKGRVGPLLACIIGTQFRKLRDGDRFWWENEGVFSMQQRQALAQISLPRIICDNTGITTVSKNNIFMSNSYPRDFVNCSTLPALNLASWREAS
T1 sequence (P05164 165-273): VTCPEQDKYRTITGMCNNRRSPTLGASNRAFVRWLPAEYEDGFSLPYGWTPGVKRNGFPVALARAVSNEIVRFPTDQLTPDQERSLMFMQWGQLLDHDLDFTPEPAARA
Chain of native human MPO (P05164 279-745): as the sequence (P05164 279-745) above
Chain of native human MPO (P05164 165-273): as the sequence (P05164 165-273) above
Chain of MAO-A, human (P21397 whole entry): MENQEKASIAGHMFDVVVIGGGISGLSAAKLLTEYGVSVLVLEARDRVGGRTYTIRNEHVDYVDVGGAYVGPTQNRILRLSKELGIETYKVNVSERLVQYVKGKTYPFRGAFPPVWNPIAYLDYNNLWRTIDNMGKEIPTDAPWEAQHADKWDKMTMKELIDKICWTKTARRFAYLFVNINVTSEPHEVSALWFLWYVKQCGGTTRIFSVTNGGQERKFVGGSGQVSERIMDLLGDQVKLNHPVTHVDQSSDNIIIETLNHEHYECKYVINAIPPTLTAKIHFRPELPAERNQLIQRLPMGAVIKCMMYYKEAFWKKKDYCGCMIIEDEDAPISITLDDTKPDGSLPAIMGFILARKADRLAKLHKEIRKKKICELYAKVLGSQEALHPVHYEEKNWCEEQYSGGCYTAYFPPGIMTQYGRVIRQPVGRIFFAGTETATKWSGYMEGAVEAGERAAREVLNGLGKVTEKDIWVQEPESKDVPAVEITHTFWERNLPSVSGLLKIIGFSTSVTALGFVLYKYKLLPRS
Chain of recombinant human VAP-1 (Q16853 34-763): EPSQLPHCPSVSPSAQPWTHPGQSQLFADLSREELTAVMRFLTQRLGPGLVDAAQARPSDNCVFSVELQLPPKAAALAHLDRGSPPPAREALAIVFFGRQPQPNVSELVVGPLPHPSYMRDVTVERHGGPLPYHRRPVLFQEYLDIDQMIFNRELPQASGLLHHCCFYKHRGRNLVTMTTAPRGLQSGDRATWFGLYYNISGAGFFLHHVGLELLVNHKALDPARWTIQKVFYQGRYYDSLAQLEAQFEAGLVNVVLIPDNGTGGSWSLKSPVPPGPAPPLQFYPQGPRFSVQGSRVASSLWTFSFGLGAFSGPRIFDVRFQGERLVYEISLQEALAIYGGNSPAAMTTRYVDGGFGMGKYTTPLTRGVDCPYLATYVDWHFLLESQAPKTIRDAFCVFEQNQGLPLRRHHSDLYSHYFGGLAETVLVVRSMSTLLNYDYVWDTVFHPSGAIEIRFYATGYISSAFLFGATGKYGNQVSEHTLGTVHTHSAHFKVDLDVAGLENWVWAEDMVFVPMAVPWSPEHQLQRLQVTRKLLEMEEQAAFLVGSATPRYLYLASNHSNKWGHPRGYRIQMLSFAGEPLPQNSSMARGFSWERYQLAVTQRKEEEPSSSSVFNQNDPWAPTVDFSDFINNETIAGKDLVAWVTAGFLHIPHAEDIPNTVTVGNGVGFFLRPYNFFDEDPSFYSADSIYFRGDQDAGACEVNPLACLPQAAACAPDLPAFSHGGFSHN
Chain of LOX, human (P28300 169-417): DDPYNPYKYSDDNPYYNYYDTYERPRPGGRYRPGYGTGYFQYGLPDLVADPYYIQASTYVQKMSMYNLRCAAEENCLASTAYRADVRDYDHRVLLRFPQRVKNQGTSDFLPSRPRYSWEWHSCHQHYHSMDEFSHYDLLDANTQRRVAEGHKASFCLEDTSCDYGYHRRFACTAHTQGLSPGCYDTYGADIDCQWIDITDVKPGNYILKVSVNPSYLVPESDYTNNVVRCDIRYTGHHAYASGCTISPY
Chain of human DAO (P19801 20-751): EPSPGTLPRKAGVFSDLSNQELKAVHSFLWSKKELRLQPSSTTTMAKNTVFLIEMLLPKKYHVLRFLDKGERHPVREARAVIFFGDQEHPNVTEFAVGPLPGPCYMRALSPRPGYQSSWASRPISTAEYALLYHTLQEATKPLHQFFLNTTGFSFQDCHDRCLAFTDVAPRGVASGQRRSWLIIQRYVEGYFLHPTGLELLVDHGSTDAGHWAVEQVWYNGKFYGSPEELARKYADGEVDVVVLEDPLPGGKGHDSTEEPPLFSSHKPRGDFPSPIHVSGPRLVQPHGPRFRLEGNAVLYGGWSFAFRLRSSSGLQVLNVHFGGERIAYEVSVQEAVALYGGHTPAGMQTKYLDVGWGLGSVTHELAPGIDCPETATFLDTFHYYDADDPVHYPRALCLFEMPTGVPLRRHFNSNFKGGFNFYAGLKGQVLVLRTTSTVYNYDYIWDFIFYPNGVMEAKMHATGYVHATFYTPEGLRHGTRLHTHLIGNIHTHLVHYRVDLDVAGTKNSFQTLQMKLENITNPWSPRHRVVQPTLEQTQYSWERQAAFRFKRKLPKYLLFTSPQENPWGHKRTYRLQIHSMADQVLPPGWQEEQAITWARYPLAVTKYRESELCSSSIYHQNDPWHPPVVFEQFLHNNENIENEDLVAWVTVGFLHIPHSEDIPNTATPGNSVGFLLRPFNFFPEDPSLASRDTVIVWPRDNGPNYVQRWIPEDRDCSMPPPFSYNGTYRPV

As to `NC/C(=C\F)COc1cccc(Cn2c(=S)[nH]c(=O)c3[nH]cnc32)c1` [SNT-8370, (E)-3-(3-((2-(aminomethyl)-3-fluoroallyl)oxy)benzyl)-2-thioxo-1,2,3,7-tetrahydro-6H-purin-6-one], in data set [1], the “MPO IC50 more potent than AZD5904” value is given as ~ 3 fold and the “MPO IC50 more potent than verdiperstat” value was ~ 2 fold. Also, in data set [2], the “fold lower IC50 than verdiperstat or PF06282999, H2O2 consumption” value is 5-8 fold. Moreover, in data set [3], the “fold lower IC50 than verdiperstat or PF06282999, HOCl production” value is 2–5 fold. Further, in data set [4], the IC50 is 20 nM and the “fold lower IC50 than verdiperstat, LDL lipid peroxidation” value is on record as 30 fold. Besides, the “partition ratio for MPO inhibition” value in data set [5] is recorded as 15.7 ± 2.4. The “selectivity index over MAO-A” value in data set [6] is reported as above 1000 fold. For the same compound, the “selectivity index over LOX” value in data set [7] is recorded as above 1000 fold. Further, the “Cell health (cytotoxicity)” value in [8] was “no toxicity”. Also, the “Substrate turnover, VAP-1” value in data set [9] was “No oxidative turnover”. The “Substrate turnover, DAO” value in data set [10] is recorded as “no turnover observed”. In addition, the “Eurofins Transporter screen, hits (>50% inhibition)” value in [11] is reported as “no significant inhibition”. In data set [12] (C57Bl/6J, in vivo, po), the half-life is 2 to 4 h. In addition, the “time of highest drug concentrations after oral gavage” value in data set [12] is 1 h. For the same compound, in data set [12] (oral gavage), the “drug in the brain” value is on record as “No drug was detectable”. Also, the “effect on peritoneal MPO activity” value in data set [13] (oral 10 mg/kg) is on record as “no effect”. The “effect on peritoneal MPO activity” value in data set [13] (oral 30 mg/kg) is recorded as “no effect”. For the same compound, in data set [13], the “reduction of peritoneal MPO activity” value is given as above 50% and the “effect on lavage fluid MPO protein concentration (ELISA)” value was “no effect”. Moreover, in data set [14], the “neutrophils in the peritoneum” value is on record as “significantly reduced” and the “total immune cells (leucocytes) in the peritoneum” value is “significantly reduced”. Moreover, the “inhibition of in vivo VAP-1 activity in adipose tissue” value in data set [15] is reported as above 90%. Besides, the “air pouch exudate volume at 12-h” value in data set [16] (SNT-8370 10 mg/kg) is on record as “significantly reduced”. Moreover, the “air pouch exudate volume at 12-h” value in data set [16] (setting [21]) is reported as “significantly reduced”. Besides, the “leucocyte influx into the air pouch at 4-h” value in [16] was “significantly reduced”. Also, in data set [17], the “lung infiltration of neutrophils (BALF)” value is reported as “significantly reduced” and the “lung infiltration of total leucocytes (BALF)” value is “significantly reduced”. Also, in data set [18], the “cardiac fibrosis (picrosirius red, Masson's trichrome, periostin)” value is “significantly reduce”; the “ejection fraction post-MI” value is “prevented the significant post-MI reduction”; the “fractional shortening post-MI” value was “prevented the significant post-MI reduction”. Besides, the “Eurofins PanLabs screen, hits (>50% inhibition)” value in data set [19] is listed as “No significant off-targets”. The “drug concentration in peritoneal lavage fluid” value in [20] (oral 10 mg/kg) is 1.1 ng/mL. Also, in [20] (oral 30 mg/kg), the “drug concentration in peritoneal lavage fluid” value is listed as 1.5 ng/mL. For the same compound, in data set [20] (oral 60 mg/kg), the “drug concentration in peritoneal lavage fluid, molar equivalent” value was determined as 170 nM and the “drug concentration in peritoneal lavage fluid” value is listed as ~ 60 ng/mL. The “drug concentration in peritoneal lavage fluid, molar equivalent” value in data set [20] (oral 10 and 30 mg/kg) is recorded as below 4 nM.

For `C[C@@H]1C[C@H]2[C@@H]3CCC4=CC(=O)C=C[C@]4(C)[C@@]3(F)[C@@H](O)C[C@]2(C)[C@@]1(O)C(=O)CO` [dexamethasone], the “air pouch exudate volume at 12-h” value in [16] (setting [21]) was “significantly reduced”. Also, the “leucocyte influx into the air pouch at 4-h” value in [16] was “significantly reduced”.

For the compound `CC(C)OCCn1c(=S)[nH]c(=O)c2[nH]ccc21` [Verdiperstat, reference compound], 600 nM corresponded to half-maximal inhibition in [4] (IC50). Besides, in [13], the “reduction of peritoneal MPO activity” value is listed as above 50% and the “effect on lavage fluid MPO protein concentration (ELISA)” value is “no effect”. In [14], the “neutrophils in the peritoneum” value is reported as “Neither of the monotherapy treatments showed a significant effect” and the “total immune cells (leucocytes) in the peritoneum” value is reported as “Neither of the monotherapy treatments showed a significant effect”. Besides, the “air pouch exudate volume at 12-h” value in data set [16] (setting [21]) is listed as “neither verdiperstat nor PXS-4707, significantly reduced”. In addition, the “leucocyte influx into the air pouch at 4-h” value in data set [16] was “significantly reduced”. Also, in [17], the “lung infiltration of neutrophils (BALF)” value was “non-significant downward trends” and the “lung infiltration of total leucocytes (BALF)” value was “non-significant downward trends”. For the same compound, the “drug concentration in peritoneal lavage fluid” value in data set [20] (oral 60 mg/kg) is reported as above 10 ng/mL.
